# Values quoted from earlier work, collected in patent US12364687B2 (BIOHAVEN PHARMACEUTICAL HOLDING COMPANY LTD., priority 2018, dated 2025).
# Conditions: taken with meals
compound,measurement,value
"Nc1nc2ccc(OC(F)(F)F)cc2s1 [riluzole, 6-(trifluoromethoxy)benzothiazol-2-amine]",food effect on exposure,reduced exposure when taken with meals
